US10426745B2, “Polymeric metformin and its use as a therapeutic agent and as a delivery vehicle” (The University of North Carolina at Chapel Hill, priority 2015, dated 2019)

How the values were obtained:
luciferase plasmid = assay: pDNA transfection efficiency with luciferase plasmid; format: cell-based
Protocol: FIG. 10 depicts transfection efficiency of (A) L-PEI and L-PolyMet and (B) B-PEI and B-PolyMet at the indicated N/P ratios. Luciferase pDNA concentration was 0.5 μg/well in 96-well plate. Data are mean±S.D. (n=6 per group).

H460 tumor = assay: H460 xenograft tumor growth / antitumor activity; format: in vivo, mice; conditions: vs PBS and LPH-PEI groups; IV 0.4 mg/kg body weight every other day
Protocol: FIG. 6A depicts Metformin and PolyMet inhibit H460 tumor growth. PBS, metformin, LPH-PEI and LPH-PolyMet were administered intravenously every other day, and mice were sacrificed 24 hours after the final injection. In FIG. 6A, tumor volumes were measured every day; FIG. 6B depicts tumor weights were measured on day after final injection and compared with body weights to determine percentage of tumor burden; FIG. 6C depicts visual observations of the H460 tumor sizes in each treatment group at the end time point; (n=5 per group).
Female nude female mice and female CD1 mice that were 6-8 weeks old were used in the studies. Female nude mice were purchased from National Cancer Institute (Bethesda, Md.) and bred by the Division of Laboratory Animal Medicine (DLAM) at University of North Carolina at Chapel Hill. CD1 mice were purchased from Charles River Laboratories (Morrisville, N.C.). To establish the xenograft models, 5×10^6 cells in 100 μL of PBS were injected subcutaneously into the right flank of the mice.
Human NSCLC cells xenografts were used as previously described. H460 human lung cancer cells ([…]) were subcutaneously injected into the right flanks of female athymic nu/nu mice. […] Animal weight and tumor volumes were measured every other day. […]

AMPKα = assay: Western blot of tumor proteins: AMPKα phosphorylation; format: in vivo, mice; conditions: H460 tumors, IV every other day
Protocol: (§1) FIG. 7A depicts Metformin and PolyMet inhibition of tumor growth by activation of AMPK, inhibiting the mTOR pathway; FIG. 7B depicts inducing autophagy and apoptosis mechanisms. Mice bearing H460 tumors were given IV injections every other day and analysis of tumor proteins was prepared 24 h after the second injection. Cells under autophagy were stained by LC3b antibody (red) and apoptosis of cells was indicated by TUNEL assay (green). Nuclei are stained blue. The percentage denotes the average percentage of LC3b positive cells (red) and the percentage of TUNEL positive cells (green), respectively. Five randomly selected microscopic fields were quantitatively analyzed on ImageJ. Data are mean±S.D. (n=5 per group).
(§2) H460 tumor-bearing mice were given IV injections every second day and mice were sacrificed 24 hours after the third injection. Protein per lane was separated by 4%-12% SDS-PAGE electrophoresis (Invitrogen) before being transferred to polyvinylidene difluoride (PVDF) membranes (Bio-Rad). The membranes were blocked for 1 h with 5% non fat dry milk (Bio-Rad) at room temperature and then incubated with antibodies overnight at 4° C. The membranes were washed 3 times and then incubated with a secondary antibody (1:4,000 dilution; Cell signal Inc.) at room temperature for 1 h. […]

mTOR = assay: Western blot of tumor proteins: p-mTOR/mTOR; format: in vivo, mice; conditions: H460 tumors; compared to the PBS and LPH-PEI
Protocol: as §1, §2

LC3b = LC3b immunostaining of H460 tumors (autophagy); format: in vivo, mice; conditions: vs other groups
Protocol: as §1

H460 tumor cells = assay: TUNEL assay of in vivo tumor cell apoptosis; design: species or system mice; conditions: H460 tumors after IV treatment
Protocol: as §1
FIG. 8 depicts in vitro and in vivo gene silencing effect of different LPH nanoparticles. […] Luciferase activities of cells were analyzed and normalized by protein. *p<0.05, **p<0.01, ***p<0.001. […] H460 tumor-bearing mice were injected intravenously every other day; FIG. 8B depicts tumor BCL2 protein levels after 2 injections were measured by western blot analysis; FIG. 8C depicts tumor volumes were measured every day; FIG. 8D depicts TUNEL staining in H460 tumor cells after treatment with siRNA in different formulations in vivo. […] Five randomly selected microscopic fields were quantitatively analyzed on ImageJ. […]

| Compound | transfection efficiency (luciferase plasmid) | inhibition of cancer progression (tumor growth) (H460 tumor) | phosphorylation level of AMPKα relative to PBS group (AMPKα) | reduction in p-mTOR/mTOR levels (mTOR) | LC3b-associated red fluorescence (autophagy) (LC3b) | percent of apoptotic (TUNEL-positive) cells (H460 tumor cells) |
| --- | --- | --- | --- | --- | --- | --- |
| protamine | did not help |  |  |  |  |  |
| CN(C)C(=N)NC(=N)N [Metformin, N,N-dimethylimidodicarbonimidic diamide] |  | significant inhibition | about 9 fold | 2.3 fold | higher | 18.8% |
